Reference: patent US20140017701A1, “CHIMERIC PDK1 KINASES” (priority 2011, published 2014)

Legend:
[1] = target: T1, PKCθ (Homo sapiens, UniProt Q04759); experiment: Protein kinase activity assay, PKCθ; format: biochemical; settings: Table I b; percentage of catalytic activity compared to DMSO; lipid activator mix, histone H1
T1 construct: purchased ProQinase
Experimental: (§1) The protein kinase activity assays were performed essentially as previously described (Engel, M. et al. Embo J 25, 5469-80 (2006)). The assays were done in a 96-well format and 4 μl aliquots spotted on P81 phospho-cellulose papers (Whatman) using epMotion 5070 (Eppendorf), washed in 0.01% phosphoric acid, dried, and then exposed and analyzed using PhosphoImager technology (FLA-9000 Starion, Fujifilm). Atypical PKC (aPKC) activity assays were performed in a total volume of 20 μl containing 50 mM Tris-HCl pH 7.5, 0.05 mg/ml BSA, 0.1% (v/v) 2-mercaptoethanol, 10 mM MgCl2, 100 μM [γ^32P]ATP (5-50 cpm/pmol), 0.003% Brij, 30-50 ng of aPKC, and MBP (10 μM) or PSRtide (100 μM) as the substrate. After 15 min pre-incubation, the kinase reaction was started by addition of 6 μl of an ATP-Mg mix. When required, lipid activator (LA) phosphatidylserine (100 ng) or PKC lipid activator mix (1×) was included in the pre-incubation. Low basal activity and consistent activation of 1-592 PKCζ and 498 PKCζ by LA was obtained when the pre-incubation time was started by addition of the whole mix on the enzyme.
(§2) The substrates were T308tide (200 μM) for PDK1, Kemptide (100 μM) for PKA, and Crosstide (100 μM) for SGK, PKB, S6K, and PRK2. The activity assays for PKCα, β, θ, and δ were performed in the presence of PKC lipid activator mix (1×) using 3 μM of histone H1 as substrate. […]

[2] = test system: PDK1; experiment: Protein kinase activity assay, PDK1; format: biochemical, human; settings: for Effect on PDK1 activity: PDK1 wt / PDK1 50-359; for Activity (%) PDK1: Table I a, percentage of catalytic activity compared to DMSO, T308tide substrate, 50 μM stated for PS171
Experimental: For the expression and purification of protein kinases fused to GST, pEBG-2T derived plasmids were transfected into 8×14.5 cm dishes containing HEK293 cells using the PEI method ([…] and […]/14.5 cm dish). The cells were lysed after 48 h in a buffer containing 50 mM Tris-HCl pH 7.5, 1 mM EGTA, 1 mM EDTA, 1% (w/v) Triton X-100, 1 mM sodium orthovanadate, […], 5 mM sodium pyrophosphate, 0.27 M sucrose, 0.1% β-mercaptoethanol, and 1 tablet of protease inhibitor cocktail per 50 ml of buffer. Lysates were frozen in liquid nitrogen and kept at −80° C. until required. Purification involved incubation of the cleared lysate with glutathione sepharose, followed by 2 washes with 0.5 M NaCl in lysis buffer, 8 washes with a buffer containing 50 mM Tris-HCl, 0.1 mM EGTA and 0.1% β-mercaptoethanol (buffer A), and a last wash with buffer A supplemented with 0.26 M sucrose. Elution was performed with this last buffer containing 20 mM glutathione and the GST-fusion protein was cleared from resin by filtration through a “SigmaPrep” spin column (Sigma). GST-fusion proteins were aliquoted, snap frozen in liquid nitrogen and kept at −80° C. until use. Purity at this stage was above 85% as estimated by SDS-PAGE and staining with Coomassie Brilliant Blue R250. PRK2 was expressed from pEBG-2T-PRK2 (Balendran, A. et al. J Biol Chem 275, 20806-13. (2000)), SGK1 from pEBG-2T-SGK1-ΔN[Ser422Asp], PKBα from pEBG-2T-PKBα[Ser473Asp] (Biondi et al., D. R. Embo J 20, 4380-90. (2001)), PKCl from pEBG-2T-PKCl and PKCζ from pEBG-2T-PKCζ. PDK1 and S6K1 were expressed in Sf9 insect cells using a baculovirus expression system from pFastBac-PDK1 and pFastBac-56K1-T2[Thr412Glu].
as §1
The substrates were T308tide (200 μM) for PDK1, Kemptide (100 μM) for PKA, and Crosstide (100 μM) for SGK, PKB, S6K, and PRK2. The activity assays for PKCα, β, θ, and δ were performed in the presence of PKC lipid activator mix (1×) using 3 μM of histone H1 as substrate.
The activity assays were performed in duplicates or triplicates (in the case of the temperature stability assay) with less than 10% difference between the duplicate pairs. The activity assays shown were repeated at least twice with similar results. Moreover, most of the assays shown were repeated multiple times with enzymes from independent purifications with similar results. Representative experiments are shown. […]

[3] = test system: PKA; experiment: Protein kinase activity assay, PKA; format: biochemical; settings: Table I a; percentage of catalytic activity compared to DMSO; Kemptide substrate
Experimental: as §1, §2

[4] = target: T2, PRK2 (Homo sapiens, UniProt Q16513); experiment: Protein kinase activity assay, PRK2; format: biochemical; settings: Table I a; percentage of catalytic activity compared to DMSO; Crosstide substrate
T2 construct: made in house; host or cells: HEK293
T2 sequence (Q16513 whole entry): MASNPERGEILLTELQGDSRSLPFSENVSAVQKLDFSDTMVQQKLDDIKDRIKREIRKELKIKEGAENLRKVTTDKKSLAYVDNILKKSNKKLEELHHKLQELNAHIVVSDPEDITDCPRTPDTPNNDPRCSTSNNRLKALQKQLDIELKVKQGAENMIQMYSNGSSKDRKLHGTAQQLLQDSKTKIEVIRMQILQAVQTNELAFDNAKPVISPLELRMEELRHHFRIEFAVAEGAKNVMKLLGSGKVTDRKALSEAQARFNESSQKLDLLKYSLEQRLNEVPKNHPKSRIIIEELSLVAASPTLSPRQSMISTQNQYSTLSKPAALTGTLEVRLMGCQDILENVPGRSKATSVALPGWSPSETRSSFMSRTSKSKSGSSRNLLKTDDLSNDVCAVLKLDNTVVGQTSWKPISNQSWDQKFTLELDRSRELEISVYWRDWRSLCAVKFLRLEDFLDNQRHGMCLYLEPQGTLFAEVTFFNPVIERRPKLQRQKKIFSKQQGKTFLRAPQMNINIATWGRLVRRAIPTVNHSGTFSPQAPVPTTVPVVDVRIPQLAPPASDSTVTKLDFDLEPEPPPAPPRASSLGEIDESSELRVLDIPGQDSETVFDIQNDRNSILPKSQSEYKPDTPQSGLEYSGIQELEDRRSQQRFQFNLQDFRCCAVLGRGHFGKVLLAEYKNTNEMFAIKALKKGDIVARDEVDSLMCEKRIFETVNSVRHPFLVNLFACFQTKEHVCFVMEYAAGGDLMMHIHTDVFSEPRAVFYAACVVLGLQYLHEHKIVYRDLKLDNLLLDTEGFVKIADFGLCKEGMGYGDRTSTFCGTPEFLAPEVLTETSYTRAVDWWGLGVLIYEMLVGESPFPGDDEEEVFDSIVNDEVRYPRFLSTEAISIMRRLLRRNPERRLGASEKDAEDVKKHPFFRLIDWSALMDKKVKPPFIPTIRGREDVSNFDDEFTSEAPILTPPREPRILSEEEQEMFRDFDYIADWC
Experimental: (§3) For the expression and purification of protein kinases fused to GST, pEBG-2T derived plasmids were transfected into 8×14.5 cm dishes containing HEK293 cells using the PEI method ([…] and […]/14.5 cm dish). The cells were lysed after 48 h in a buffer containing 50 mM Tris-HCl pH 7.5, 1 mM EGTA, 1 mM EDTA, 1% (w/v) Triton X-100, 1 mM sodium orthovanadate, […], 5 mM sodium pyrophosphate, 0.27 M sucrose, 0.1% β-mercaptoethanol, and 1 tablet of protease inhibitor cocktail per 50 ml of buffer. Lysates were frozen in liquid nitrogen and kept at −80° C. until required. Purification involved incubation of the cleared lysate with glutathione sepharose, followed by 2 washes with 0.5 M NaCl in lysis buffer, 8 washes with a buffer containing 50 mM Tris-HCl, 0.1 mM EGTA and 0.1% β-mercaptoethanol (buffer A), and a last wash with buffer A supplemented with 0.26 M sucrose. […]
(§4) The protein kinase activity assays were performed essentially as previously described (Engel, M. et al. Embo J 25, 5469-80 (2006)). The assays were done in a 96-well format and 4 μl aliquots spotted on P81 phospho-cellulose papers (Whatman) using epMotion 5070 (Eppendorf), washed in 0.01% phosphoric acid, dried, and then exposed and analyzed using PhosphoImager technology (FLA-9000 Starion, Fujifilm). […]

[5] = target: T3, S6K1-T2-[Thr412Glu] (Homo sapiens, UniProt P23443, T412E); experiment: Protein kinase activity assay, S6K1; format: biochemical; settings: Table I a; percentage of catalytic activity compared to DMSO; Crosstide substrate
T3 construct: His; made in house; host or cells: Sf9 insect cells (baculovirus)
T3 sequence (P23443 1-421 T412E limits assumed): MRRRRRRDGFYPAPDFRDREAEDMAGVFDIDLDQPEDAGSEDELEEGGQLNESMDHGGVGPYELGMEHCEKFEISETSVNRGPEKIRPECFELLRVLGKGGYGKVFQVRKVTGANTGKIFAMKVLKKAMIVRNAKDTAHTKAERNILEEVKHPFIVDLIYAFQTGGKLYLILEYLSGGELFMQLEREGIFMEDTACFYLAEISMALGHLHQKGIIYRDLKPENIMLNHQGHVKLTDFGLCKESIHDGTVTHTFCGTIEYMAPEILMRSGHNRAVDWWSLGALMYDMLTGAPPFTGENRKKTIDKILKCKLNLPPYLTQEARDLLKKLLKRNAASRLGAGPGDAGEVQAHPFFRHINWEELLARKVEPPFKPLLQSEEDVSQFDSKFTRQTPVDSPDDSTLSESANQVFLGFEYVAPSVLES
Experimental: as §3, §4

[6] = target: T4, PKCα (Homo sapiens, UniProt P17252); experiment: Protein kinase activity assay, PKCα; format: biochemical; settings: Table I b; percentage of catalytic activity compared to DMSO; lipid activator mix, histone H1
T4 construct: purchased Millipore
Experimental: as §1, §2

[7] = target: T5, SGK (Homo sapiens, UniProt O00141, S422D); experiment: Protein kinase activity assay, SGK; format: biochemical; settings: Table I a; percentage of catalytic activity compared to DMSO; Crosstide substrate
T5 construct: made in house; host or cells: HEK293
T5 sequence (O00141 61-431 S422D limits assumed): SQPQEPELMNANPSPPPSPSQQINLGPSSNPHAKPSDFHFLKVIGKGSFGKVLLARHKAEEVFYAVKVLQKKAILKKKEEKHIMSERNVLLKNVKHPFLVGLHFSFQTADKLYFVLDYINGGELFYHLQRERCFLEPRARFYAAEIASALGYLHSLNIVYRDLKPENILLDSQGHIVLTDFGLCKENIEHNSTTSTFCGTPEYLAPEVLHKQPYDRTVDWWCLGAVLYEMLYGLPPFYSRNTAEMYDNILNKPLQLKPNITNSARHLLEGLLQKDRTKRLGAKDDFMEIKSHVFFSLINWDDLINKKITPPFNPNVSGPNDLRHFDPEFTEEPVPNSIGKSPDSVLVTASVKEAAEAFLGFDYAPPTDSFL
Experimental: as §3, §4

T1 sequence (Q04759 whole entry): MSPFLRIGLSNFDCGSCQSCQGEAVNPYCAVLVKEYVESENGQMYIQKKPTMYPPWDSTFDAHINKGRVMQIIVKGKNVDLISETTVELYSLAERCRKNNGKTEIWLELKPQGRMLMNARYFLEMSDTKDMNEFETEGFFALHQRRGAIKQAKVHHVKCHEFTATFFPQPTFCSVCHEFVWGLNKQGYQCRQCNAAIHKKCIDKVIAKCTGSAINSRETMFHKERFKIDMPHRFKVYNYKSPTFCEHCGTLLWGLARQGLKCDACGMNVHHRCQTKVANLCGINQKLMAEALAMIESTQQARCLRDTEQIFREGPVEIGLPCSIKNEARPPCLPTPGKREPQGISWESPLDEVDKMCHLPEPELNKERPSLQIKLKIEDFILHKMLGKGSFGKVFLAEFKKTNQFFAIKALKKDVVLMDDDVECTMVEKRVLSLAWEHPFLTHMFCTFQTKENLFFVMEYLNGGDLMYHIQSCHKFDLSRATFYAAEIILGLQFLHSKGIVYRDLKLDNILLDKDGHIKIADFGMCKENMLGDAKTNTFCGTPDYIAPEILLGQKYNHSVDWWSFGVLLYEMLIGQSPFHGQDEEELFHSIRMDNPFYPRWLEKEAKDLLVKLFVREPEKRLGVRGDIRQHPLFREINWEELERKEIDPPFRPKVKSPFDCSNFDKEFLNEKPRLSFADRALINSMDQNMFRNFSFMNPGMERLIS

Row | Activity (%) Novel PKCs PKCθ [1] [%] | Effect on PDK1 activity [2] | Activity (%) PDK1 [2] [%] | Activity (%) PKA [3] [%] | Activity (%) PRK2 [4] [%] | Activity (%) S6K1 [5] [%] | Activity (%) Classical PKCs PKCα [6] [%] | Activity (%) SGK [7] [%] | SMILES
1 | 118 | allosteric activators | 246 | 91 | 97 | 47 | 145 | 97 | Cl.O=C(O)CC(Cc1nc2c(Cl)cc(Cl)cc2[nH]1)c1ccc(Cl)cc1 (stereo not shown) [PS171]
2 | 130 | activates | 294 | 70 | 103 | 41 | 154 | 93 | Cl.O=C(O)CC(Cc1nc2cc(-c3ccccc3)ccc2[nH]1)c1ccc(Cl)cc1 (stereo not shown) [PS168]
